Source: patent publication US20030161853A1, “Methylglycinediacetic acid and deribatives thereof useful as exfoliating agents” (L'OREAL, priority 2002, published 2003)

Tested on: corneodesmosine
Assay: Exfoliation test by measurement of the degradation of corneodesmosines (immunoblot of stratum corneum acetone powders, antibody G36-19, 46 kDa band)
Format: biochemical, human
Conditions: for Percentage increase in the degradation of corneodesmosine: aqueous solution containing 2% of active ingredient, pH 8.0, incubation 8 h at 34° C., relative to control without active ingredient; for % increase in the degradation of corneodesmosine: comparative chelating agents tested in the same manner as Example 1 (2% active ingredient, pH 8.0, 8 h at 34° C.)
Description: Exfoliation Test by Measurement of the Degradation of Corneodesmosines
This Example studies the capacity of trisodium methylglycine diacetate to promote exfoliation by the degradation of corneodesmosines.
Corneodesmosine is one of the majority markers of exfoliation in the corneodesmosome. It is studied by immunoblotting after separation by electrophoresis and transfer to a membrane. […] The murine monoclonal antibody G36-19 is specific for corneodesmosine; it belongs to a series of antibodies directed against epidermal differentiation antigens, produced after the immunization of a mouse with a human plantar horny layer homogenate, and then characterized (Serre G. et al, J. Invest. Dermatol. 1991, 97(6), 1061-72).
Varnish strippings are performed on the lower legs of volunteers (modification of the procedure of Lundström A. and Egelrud T., Acta Derm. Venereol. (stockh) 71, 471-474, 1991). The nylon-varnish leaves associated with the corneocytes are immersed in acetone (1 ml/cm^2) to detach the corneocytes. The mixture is filtered then rinsed three times with the same volume of acetone in order to remove all traces of varnish. Finally, the mixture is dried under vacuum:
acetone-containing powders of stratum corneum are thus obtained.
The acetone-containing powders are divided up into 1 mg aliquots. 100 μl of aqueous solutions containing 2% of active ingredient, adjusted to pH 8.0, are added. Controls without active ingredient are prepared under the same conditions. Two incubation times are studied: t=0 and t=8 h. In the latter case, incubation takes place at 34° C. with agitation.
After incubation, the mixtures are centrifuged for 10 min at 10,000 g. The supernatant is removed and replaced with 100 μl of Laemmli buffer (0.0625 M Tris/HCl pH 6.8, 2% SDS, 200 mM DTT, 10% glycerol) for extraction of the proteins. The mixture is boiled for 10 min at 100° C. and then ground in a Potter mill. The mixture is centrifuged for 10 min at 10,000 g and the supernatant is then collected. It contains the corneodesmosomal proteins.
The total proteins are assayed by Bradford's method (Biorad kit). This allows an adjustment of the samples to 0.6 mg/ml and a true comparison of the treatments. The samples together with a Rainbow low-molecular standard (Amersham Pharmacia Biotech), in a ratio of ⅓, are separated by electrophoresis on 12% acrylamide gel for ½ h at 100 V and then for 1 h at 200 V. After electrophoresis, the proteins are transferred to an Immobilon-P membrane (Millipore) for 3 h at 60 V. The membrane is then incubated for 2 times 15 min in TBS-TL buffer (Tris 25 mM, 0.15 M NaCl pH 7.2, 0.05% Tween 20, 0.5% skimmed milk powder) to block the non-specific sites. Incubation with the antibody G36-19, in a ratio of 1/12,500, is performed overnight at 4° C. After two rinses of 5 min in TBS-TL, the membrane is incubated with an IG(H+L) anti-mouse goat antibody/peroxidase conjugate (Biorad), in a ratio of 1/4000, for 1 h 30 min at room temperature. After several rinses of 5 min in TBS-TL and then TBS (without milk or Tween), the membrane is incubated for 1 min in 10 ml of ECL reagent (Amersham Pharmacia Biotech). The chemiluminescence of the corneodesmosine bands is measured with FluorS Multimager (Biorad). The 46 kDa band is quantified using the Quantity-one software (Biorad).
Glycine is used as a reference compound in this study, it having been shown in patent application EP-A2-0 852 949 (Shiseido) that glycine promotes the degradation of desmoglein (corneodesmosomal protein). […]

| SMILES | Percentage increase in the degradation of corneodesmosine | % increase in the degradation of corneodesmosine | effect on the degradation of corneodesmosines (in words) (2% active ingredient, pH 8.0, 8 h at 34° C.) |
| --- | --- | --- | --- |
| NCC(=O)O [Glycine] | 30% | – | – |
| CCCCCCCCCCCC(=O)N(CCN(CC(=O)O)CC(=O)O)CC(=O)O [Lauroylethylenediaminetriacetic acid, lauroylethylenediaminetriacetic acid] | – | −80% | – |
| N=C(CC(=O)[O-])C(=O)[O-].[Na+].[Na+] [Na iminosuccinate, sodium iminosuccinate] | – | −79% | – |
| CC(C(=O)[O-])N(CC(=O)[O-])CC(=O)[O-].[Na+].[Na+].[Na+] (centres unmarked) [Trisodium methylglycine diacetate, trisodium methylglycine diacetate] | 59% | – | promotes the degradation of corneodesmosines |
